Measurements as given in patent publication US12421210B2, “Fused bicyclic heterocycles as therapeutic agents” (NEW YORK UNIVERSITY, priority 2018, dated 2025).
Like-named read-outs stand apart in the source and are kept apart here.

Target: human NAMPT enzyme (His-hNAMPT) (Homo sapiens (Human), UniProt P43490)
Experiment: NAMPT enzymatic inhibition assay (fluorescence, NADH product)
Format: biochemical
[1] = [HDB], read-out: NAMPT IC50 (μM) [HDB]
[2] = [BPS], read-out: NAMPT IC50 (μM) [BPS]

Chain of human NAMPT enzyme (His-hNAMPT) (P43490 whole entry): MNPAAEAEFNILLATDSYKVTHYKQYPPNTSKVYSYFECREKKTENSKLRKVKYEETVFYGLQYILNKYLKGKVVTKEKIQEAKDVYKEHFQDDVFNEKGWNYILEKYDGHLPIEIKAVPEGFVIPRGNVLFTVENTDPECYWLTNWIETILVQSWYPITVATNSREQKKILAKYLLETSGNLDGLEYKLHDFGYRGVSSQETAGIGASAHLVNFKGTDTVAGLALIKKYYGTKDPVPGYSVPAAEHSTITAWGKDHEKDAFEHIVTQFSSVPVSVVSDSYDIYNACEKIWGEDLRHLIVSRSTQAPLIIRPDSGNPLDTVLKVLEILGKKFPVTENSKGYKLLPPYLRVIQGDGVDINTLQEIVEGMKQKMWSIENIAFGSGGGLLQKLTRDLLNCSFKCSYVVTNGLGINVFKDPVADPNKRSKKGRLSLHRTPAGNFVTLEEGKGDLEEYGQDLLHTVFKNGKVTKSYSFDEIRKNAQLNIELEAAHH

| SMILES | IC50 [1] [µM] | IC50 [2] [µM] |
| --- | --- | --- |
| CC(C)(C)NC(=O)N1C[C@@H]2[C@@H](CCNC(=O)c3ccc4nccn4c3)[C@@H]2C1 [Example 64, N-(2-((1R,5S,6s)-3-(tert-butylcarbamoyl)-3-azabicyclo[3.1.0]hexan-6-yl)ethyl)imidazo[1,2-a]pyridine-6-carboxamide] |  | 0.01 to 0.49 |
| Nc1ccc(/C=C/C(=O)NCC[C@@H]2[C@H]3CN(C(=O)c4ccc(OC(F)F)cc4)C[C@@H]23)cn1 [Example 90, (E)-3-(6-aminopyridin-3-yl)-N-(2-((1R,5S,6s)-3-(4-(difluoromethoxy)benzoyl)-3-azabicyclo[3.1.0]hexan-6-yl)ethyl)acrylamide] |  | 0.01 to 0.49 |
| O=C(CCc1cccnc1)NCC[C@@H]1[C@H]2CN(c3nc(Cl)ncc3F)C[C@@H]12 [Example 207, N-(2-((1R,5S,6s)-3-(2-chloro-5-fluoropyrimidin-4-yl)-3-azabicyclo[3.1.0]hexan-6-yl)ethyl)-3-(pyridin-3-yl)propanamide] | < 0.01 |  |
| CC1(OC(=O)N2C[C@@H]3[C@@H](CCNC(=O)c4cnc5[nH]ncc5c4)[C@@H]3C2)COC1 [Example 55, (1R,5S,6s)-3-methyloxetan-3-yl 6-(2-(1H-pyrazolo[3,4-b]pyridine-5-carboxamido)ethyl)-3-azabicyclo[3.1.0]hexane-3-carboxylate] |  | > 30 |
| CC(C)(C)NC(=O)N1C[C@@H]2[C@@H](CCNC(=O)c3cc(-c4cccnc4)on3)[C@@H]2C1 [Example 81, N-(2-((1R,5S,6s)-3-(tert-butylcarbamoyl)-3-azabicyclo[3.1.0]hexan-6-yl)ethyl)-5-(pyridin-3-yl)isoxazole-3-carboxamide] |  | < 0.01 |
| CC(C)(C)CNC(=O)N1C[C@@H]2[C@@H](CCNC(=O)/C=C/c3ccc(N)nc3)[C@@H]2C1 [Example 96, (1R,5S,6s)-6-(2-((E)-3-(6-aminopyridin-3-yl)acrylamido)ethyl)-N-neopentyl-3-azabicyclo[3.1.0]hexane-3-carboxamide] |  | 0.01 to 0.49 |
| O=C(NCC[C@@H]1[C@H]2CN(C(=O)C3CCOCC3)C[C@@H]12)c1cc2ccncc2o1 [Example 100, N-(2-((1R,5S,6s)-3-(tetrahydro-2H-pyran-4-carbonyl)-3-azabicyclo[3.1.0]hexan-6-yl)ethyl)furo[2,3-c]pyridine-2-carboxamide] |  | 0.5 to 0.99 |
| CC(C)(C)OC(=O)N1C[C@@H]2[C@@H](CCNC(=O)c3ccc4nccn4c3)[C@@H]2C1 [Example 7, (1R,5S,6s)-tert-butyl 6-(2-(imidazo[1,2-a]pyridine-6-carboxamido)ethyl)-3-azabicyclo[3.1.0]hexane-3-carboxylate] |  | 0.01 to 0.49 |
| Nc1ccc(/C=C/C(=O)NCC[C@@H]2[C@H]3CN(C(=O)OC4Cc5ccccc5C4)C[C@@H]23)cn1 [Example 51, (1R,5S,6s)-2,3-dihydro-1H-inden-2-yl 6-(2-((E)-3-(6-aminopyridin-3-yl)acrylamido)ethyl)-3-azabicyclo[3.1.0]hexane-3-carboxylate] |  | 0.01 to 0.49 |
| O=C(/C=C/c1cccnc1)NCC[C@@H]1[C@H]2CN(Cc3ccccc3)C(=O)[C@@H]12 (racemic) [Example 257, (E)-N-(2-((1R,5S,6S)-3-benzyl-2-oxo-3-azabicyclo[3.1.0]hexan-6-yl)ethyl)-3-(pyridin-3-yl)acrylamide and (E)-N-(2-((1S,5R,6R)-3-benzyl-2-oxo-3-azabicyclo[3.1.0]hexan-6-yl)ethyl)-3-(pyridin-3-yl)acrylamide] |  | 0.01 to 0.49 |
| CC(C)(C)OC(=O)N1C[C@@H]2[C@H](C1)[C@H]2C(F)CNC(=O)/C=C/c1cccnc1 (stereo partly drawn) [Example 255, (1R,5S,6r)-tert-butyl 6-(1-fluoro-2-((E)-3-(pyridin-3-yl)acrylamido)ethyl)-3-azabicyclo[3.1.0]hexane-3-carboxylate] |  | 0.01 to 0.49 |
| O=C(NCC[C@@H]1[C@H]2CN(c3ccc(F)cc3)C(=O)[C@@H]12)N1Cc2ccccc2C1 (racemic) [Example 266, N-(2-((1R,5S,6S)-3-(4-fluorophenyl)-2-oxo-3-azabicyclo[3.1.0]hexan-6-yl)ethyl)isoindoline-2-carboxamide and N-(2-((1S,5R,6R)-3-(4-fluorophenyl)-2-oxo-3-azabicyclo[3.1.0]hexan-6-yl)ethyl)isoindoline-2-carboxamide] | 0.01 to 0.49 |  |
| N#Cc1ccccc1N1C[C@@H]2[C@@H](CCNC(=O)/C=C/c3cccnc3)[C@@H]2C1 [Example 135, (E)-N-(2-((1R,5S,6s)-3-(2-cyanophenyl)-3-azabicyclo[3.1.0]hexan-6-yl)ethyl)-3-(pyridin-3-yl)acrylamide] | 0.01 to 0.49 |  |
| CC1(OC(=O)N2C[C@@H]3[C@@H](CCNC(=O)c4cc5ccncc5o4)[C@@H]3C2)COC1 [Example 27, (1R,5S,6s)-3-methyloxetan-3-yl 6-(2-(furo[2,3-c]pyridine-2-carboxamido)ethyl)-3-azabicyclo[3.1.0]hexane-3-carboxylate] |  | 0.01 to 0.49 |
| CC1(OC(=O)N2C[C@@H]3[C@@H](CCNC(=O)c4cc(-c5cccnc5)on4)[C@@H]3C2)COC1 [Example 50, (1R,5S,6s)-3-methyloxetan-3-yl 6-(2-(5-(pyridin-3-yl)isoxazole-3-carboxamido)ethyl)-3-azabicyclo[3.1.0]hexane-3-carboxylate] |  | 0.01 to 0.49 |
| CC1(OC(=O)N2C[C@@H]3[C@@H](CCNC(=O)N4Cc5ccc(F)cc5C4)[C@@H]3C2)COC1 [Example 42, (1R,5S,6s)-3-methyloxetan-3-yl 6-(2-(5-fluoroisoindoline-2-carboxamido)ethyl)-3-azabicyclo[3.1.0]hexane-3-carboxylate] |  | 0.01 to 0.49 |
| CC(C)(C)NC(=O)N1C[C@@H]2[C@@H](CCNC(=O)/C=C/c3ccc(N)nc3)[C@@H]2C1 [Example 293, (1R,5S,6s)-6-(2-((E)-3-(6-aminopyridin-3-yl)acrylamido)ethyl)-N-(tert-butyl)-3-azabicyclo[3.1.0]hexane-3-carboxamide] |  | 0.01 to 0.49 |
| CSc1cccc(N2C[C@@H]3[C@@H](CCNC(=O)/C=C/c4cccnc4)[C@@H]3C2)c1 [Example 151, (E)-N-(2-((1R,5S,6s)-3-(3-(methylthio)phenyl)-3-azabicyclo[3.1.0]hexan-6-yl)ethyl)-3-(pyridin-3-yl)acrylamide] | < 0.01 |  |
| CC(C)(C)OC(=O)N1C[C@@H]2[C@@H](CCNC(=NC#N)Nc3ccncc3)[C@@H]2C1 [Example 18, (1R,5S,6s)-tert-butyl 6-(2-((E)-2-cyano-3-(pyridin-4-yl)guanidino)ethyl)-3-azabicyclo[3.1.0]hexane-3-carboxylate] |  | 0.01 to 0.49 |

The next lines start with the values.

| IC50 [1] [µM] | IC50 [2] [µM] | SMILES |
| --- | --- | --- |
| 0.01 to 0.49 |  | O=C(/C=C/c1ccncc1)NCC[C@@H]1[C@H]2CN(c3nc(Cl)ncc3F)C[C@@H]12 [Example 214, (E)-N-(2-((1R,5S,6s)-3-(2-chloro-5-fluoropyrimidin-4-yl)-3-azabicyclo[3.1.0]hexan-6-yl)ethyl)-3-(pyridin-4-yl)acrylamide] |
|  | 0.01 to 0.49 | CC1(OC(=O)N2C[C@@H]3[C@@H](CCNC(=O)/C=C/c4cccnc4)[C@@H]3C2)COC1 [Example 21, (1R,5S,6s)-3-methyloxetan-3-yl 6-(2-((E)-3-(pyridin-3-yl)acrylamido)ethyl)-3-azabicyclo[3.1.0]hexane-3-carboxylate] |
|  | 0.01 to 0.49 | Cc1nn(C)c(C)c1C(=O)N1C[C@@H]2[C@@H](CCNC(=O)/C=C/c3ccc(N)nc3)[C@@H]2C1 [Example 88, (E)-3-(6-aminopyridin-3-yl)-N-(2-((1R,5S,6s)-3-(1,3,5-trimethyl-1H-pyrazole-4-carbonyl)-3-azabicyclo[3.1.0]hexan-6-yl)ethyl)acrylamide] |
|  | 0.01 to 0.49 | CC(C)(C)OC(=O)N1C[C@@H]2[C@@H](CCNC(=O)NCc3cccnc3)[C@@H]2C1 [Example 19, (1R,5S,6s)-tert-butyl 6-(2-(3-((pyridin-3-yl)methyl)ureido)ethyl)-3-azabicyclo[3.1.0]hexane-3-carboxylate] |
|  | 0.01 to 0.49 | O=C(NCC[C@@H]1[C@H]2CN(C(=O)OC3CCOCC3)C[C@@H]12)c1cnc2nccn2c1 [Example 79, (1R,5S,6s)-tetrahydro-2H-pyran-4-yl 6-(2-(imidazo[1,2-a]pyrimidine-6-carboxamido)ethyl)-3-azabicyclo[3.1.0]hexane-3-carboxylate] |
| 0.01 to 0.49 |  | O=C(NCC[C@@H]1[C@H]2CN(c3nc(Cl)ncc3F)C[C@@H]12)c1cnc2nccn2c1 [Example 213, N-(2-((1R,5S,6s)-3-(2-chloro-5-fluoropyrimidin-4-yl)-3-azabicyclo[3.1.0]hexan-6-yl)ethyl)imidazo[1,2-a]pyrimidine-6-carboxamide] |
|  | 0.01 to 0.49 | O=C(NCC[C@@H]1[C@H]2CN(C(=O)N3CCOCC3)C[C@@H]12)c1cc2ccncc2o1 [Example 58, N-(2-((1R,5S,6s)-3-(morpholine-4-carbonyl)-3-azabicyclo[3.1.0]hexan-6-yl)ethyl)furo[2,3-c]pyridine-2-carboxamide] |
| < 0.01 |  | O=C(/C=C/c1cccnc1)NCC[C@@H]1[C@H]2CN(c3nc(N4CCC(O)C4)ncc3F)C[C@@H]12 (stereo partly drawn) [Example 326, (E)-N-(2-((1R,5S,6s)-3-(5-fluoro-2-(3-hydroxypyrrolidin-1-yl)pyrimidin-4-yl)-3-azabicyclo[3.1.0]hexan-6-yl)ethyl)-3-(pyridin-3-yl)acrylamide] |
|  | 0.01 to 0.49 | CC(C)(C)NC(=O)N1C[C@@H]2[C@@H](CCNC(=O)/C=C/c3cccnc3)[C@@H]2C1 [Example 75, (1R,5S,6s)-N-(tert-butyl)-6-(2-((E)-3-(pyridin-3-yl)acrylamido)ethyl)-3-azabicyclo[3.1.0]hexane-3-carboxamide] |
|  | 1 to 29 | O=C(NCC[C@@H]1[C@H]2CN(S(=O)(=O)C3CCOCC3)C[C@@H]12)c1cnc2nccn2c1 [Example 80, N-(2-((1R,5S,6s)-3-((tetrahydro-2H-pyran-4-yl)sulfonyl)-3-azabicyclo[3.1.0]hexan-6-yl)ethyl)imidazo[1,2-a]pyrimidine-6-carboxamide] |
|  | 0.01 to 0.49 | Nc1ccc(/C=C/C(=O)NCC[C@@H]2[C@H]3CN(C(=O)NCc4ccccc4)C[C@@H]23)cn1 [Example 28, (1R,5S,6s)-6-(2-((E)-3-(6-aminopyridin-3-yl)acrylamido)ethyl)-N-benzyl-3-azabicyclo[3.1.0]hexane-3-carboxamide] |
